Reference: PubChem BioAssay AID256 (DTP/NCI, 2004)
Toxic doses and inconclusive results are not listed. Rule for the calls: active = survival T/C of 150% or more; inactive = T/C below 125% in these data.

Tested on: CD2F1 mice, L1210 leukemia ip, survival T/C
Assay: NCI In Vivo Anticancer Drug Screen. Data for tumor model L1210 Leukemia (intraperitoneal) in CD2F1 (CDF1) mice
Conditions: endpoint: mean survival time, higher = longer survival
How it was run: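 Tumor-bearing mice (transplanted tumor) were split into treated and vehicle control groups, and the measured endpoint of each treated group was divided by that of its vehicle controls.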

[1] = dose: 100.0 mg/kg/injection, schedule: Q01DX001 (ip), vehicle: saline
[2] = dose: 200.0 mg/kg/injection, schedule: Q01DX001 (ip), vehicle: saline
[3] = dose: 400.0 mg/kg/injection, schedule: Q01DX001 (ip), vehicle: saline
[4] = dose: 200.0 mg/kg/injection, schedule: Q01DX009 (ip), vehicle: saline with Tween-80
[5] = dose: 400.0 mg/kg/injection, schedule: Q01DX009 (ip), vehicle: saline with Tween-80
[6] = dose: 100.0 mg/kg/injection, schedule: Q04DX003 (ip), vehicle: saline
[7] = dose: 200.0 mg/kg/injection, schedule: Q04DX003 (ip), vehicle: saline
[8] = dose: 100.0 mg/kg/injection, schedule: Q04DX003 (ip), vehicle: saline with Tween-80
[9] = dose: 200.0 mg/kg/injection, schedule: Q04DX003 (ip), vehicle: saline with Tween-80
[10] = dose: 400.0 mg/kg/injection, schedule: Q04DX003 (ip), vehicle: saline with Tween-80
[11] = dose: 50.0 mg/kg/injection, schedule: Q04DX002 (ip), vehicle: saline
[12] = dose: 100.0 mg/kg/injection, schedule: Q04DX002 (ip), vehicle: saline
[13] = dose: 50.0 mg/kg/injection, schedule: Q01DX009 (ip), vehicle: saline with Tween-80
[14] = dose: 12.5 mg/kg/injection, schedule: Q01DX001 (ip), vehicle: saline
[15] = dose: 25.0 mg/kg/injection, schedule: Q01DX001 (ip), vehicle: saline
[16] = dose: 100.0 mg/kg/injection, schedule: Q01DX009 (ip), vehicle: saline with Tween-80
[17] = dose: 100.0 mg/kg/injection, schedule: Q01DX001 (ip), vehicle: saline with Tween-80
[18] = dose: 200.0 mg/kg/injection, schedule: Q01DX001 (ip), vehicle: saline with Tween-80
[19] = dose: 400.0 mg/kg/injection, schedule: Q01DX001 (ip), vehicle: saline with Tween-80

Measured: T/C

Cc1ccc(S(=O)(=O)NN=C2CC3CCC(C2)S3)cc1
inactive: dose: 37.5 mg/kg/injection, schedule: Q01DX001 (ip), vehicle: saline with Tween-80 101 % of control | dose: 75.0 mg/kg/injection, schedule: Q01DX001 (ip), vehicle: saline with Tween-80 104 % of control | dose: 150.0 mg/kg/injection, schedule: Q01DX001 (ip), vehicle: saline with Tween-80 106 % of control

Cc1cc(NC(=O)Nc2cc(F)ccc2F)no1
inactive: dose: 25.0 mg/kg/injection, schedule: Q01DX009 (ip), vehicle: Klucel (hydroxypropylcellulose) (HPC) 101 % of control | dose: 50.0 mg/kg/injection, schedule: Q01DX009 (ip), vehicle: Klucel (hydroxypropylcellulose) (HPC) 103 % of control | dose: 100.0 mg/kg/injection, schedule: Q01DX009 (ip), vehicle: Klucel (hydroxypropylcellulose) (HPC) 101 % of control

Cc1ccc(S(=O)(=O)OC2CCSCC2)cc1
inactive: [1] 102 % of control | [2] 94 % of control | [3] 94 % of control

Cc1ccc([N+](=O)[O-])cc1NC(=O)NNC(=O)CNC(=O)Nc1ccc(F)cc1
inactive: [4] 87 % of control | [5] 92 % of control

COc1ccc2c(C(=O)CCC(=O)O)cccc2c1
inactive: dose: 100.0 mg/kg/injection, schedule: Q01DX009 (ip), vehicle: saline 94 % of control | dose: 200.0 mg/kg/injection, schedule: Q01DX009 (ip), vehicle: saline 90 % of control | dose: 400.0 mg/kg/injection, schedule: Q01DX009 (ip), vehicle: saline 100 % of control

CCCCNC(C)(C)C(SS)c1ccc(Cl)cc1 (stereo not given)
inactive: [6] 94 % of control | [7] 105 % of control

Cc1ccc(S(=O)(=O)OCC2CC=CCC2COS(=O)(=O)c2ccc(C)cc2)cc1 (stereo not given)
inactive: dose: 50.0 mg/kg/injection, schedule: Q04DX003 (ip), vehicle: saline 102 % of control | [6] 96 % of control | [7] 91 % of control

O=CNc1ccc(O)cc1
inactive: [8] 93 % of control | [9] 101 % of control | [10] 103 % of control

CCOC(=O)CN1CCC2CC1c1c([nH]c3ccccc13)C2c1cc2c(cc1OC)N(C)C1C(O)(C(=O)OC)C(OC(C)=O)C3(CC)C=CCN4CCC21C43 (stereo not given)
inactive: dose: 0.06 mg/kg/injection, schedule: Q01DX009 (ip), vehicle: other 87 % of control | dose: 0.13 mg/kg/injection, schedule: Q01DX009 (ip), vehicle: other 97 % of control | dose: 0.25 mg/kg/injection, schedule: Q01DX009 (ip), vehicle: other 92 % of control | dose: 0.5 mg/kg/injection, schedule: Q01DX009 (ip), vehicle: other 92 % of control | dose: 1.0 mg/kg/injection, schedule: Q01DX009 (ip), vehicle: other 97 % of control | dose: 2.0 mg/kg/injection, schedule: Q01DX009 (ip), vehicle: other 90 % of control

O=[N+]([O-])c1c[nH]n2c([N+](=O)[O-])cnc12
inactive: dose: 12.5 mg/kg/injection, schedule: Q01DX009 (ip), vehicle: water 96 % of control | dose: 25.0 mg/kg/injection, schedule: Q01DX009 (ip), vehicle: water 97 % of control

CC(C)C(C)/C=C\C(C)C1CCC2C3=CCC4CC(=O)CCC4(C)C3CCC21C (stereo not given)
inactive: dose: 25.0 mg/kg/injection, schedule: Q01DX001 (ip), vehicle: Klucel (hydroxypropylcellulose) (HPC) 103 % of control | dose: 50.0 mg/kg/injection, schedule: Q01DX001 (ip), vehicle: Klucel (hydroxypropylcellulose) (HPC) 96 % of control | dose: 100.0 mg/kg/injection, schedule: Q01DX001 (ip), vehicle: Klucel (hydroxypropylcellulose) (HPC) 103 % of control

CCOC(=O)Cc1c(C)[nH]c2c(C)ccc(C)c12
inactive: dose: 100.0 mg/kg/injection, schedule: Q01DX001 (ip), vehicle: other 95 % of control

O=S(CCCCO)c1ccccc1 (stereo not given)
inactive: [11] 101 % of control | [12] 104 % of control | dose: 200.0 mg/kg/injection, schedule: Q04DX002 (ip), vehicle: saline 96 % of control

NC(=O)N/N=C/c1cccs1
inactive: [13] 89 % of control | [4] 97 % of control | [9] 87 % of control | [10] 91 % of control

COc1nc2c(N)ncnc2n1C1OC(CO)C(O)C1O (stereo not given)
inactive: dose: 100.0 mg/kg/injection, schedule: Q04DX002 (ip), vehicle: saline with Tween-80 103 % of control | dose: 200.0 mg/kg/injection, schedule: Q04DX002 (ip), vehicle: saline with Tween-80 103 % of control | dose: 400.0 mg/kg/injection, schedule: Q04DX002 (ip), vehicle: saline with Tween-80 96 % of control

O=S(=O)(O)c1ccc(N=Nc2cc(O)cc3ccccc23)cc1
inactive: dose: 6.25 mg/kg/injection, schedule: Q01DX001 (ip), vehicle: saline 96 % of control | [14] 92 % of control | [15] 88 % of control | [1] 86 % of control | [2] 88 % of control | [3] 96 % of control

CC1(C)OCCCO1
inactive: dose: 25.0 mg/kg/injection, schedule: Q04DX002 (ip), vehicle: saline 104 % of control | [11] 96 % of control | [12] 100 % of control

CC(C)CCCC(C)C1CCC2C3C(O)C=C4CC(OC(=O)CCC(C)C)CCC4(C)C3CCC12C (stereo not given)
inactive: [16] 94 % of control | [4] 91 % of control | [5] 100 % of control

CCCCCCC[CH2][Sn][CH2]CCCCCCC.Nc1ncnc2c1ncn2C1OC(CO)C2[OH+][OH+]C21 (stereo not given)
inactive: dose: 12.5 mg/kg/injection, schedule: Q01DX005 (ip), vehicle: other 98 % of control | dose: 25.0 mg/kg/injection, schedule: Q01DX005 (ip), vehicle: other 110 % of control

CC(=O)OC1CS(=O)(=O)CC1Br (stereo not given)
inactive: [17] 103 % of control | [18] 98 % of control | [19] 98 % of control

C[N+](C)(C)CCCCC[N+](C)(C)C
inactive: dose: 6.25 mg/kg/injection, schedule: Q01DX009 (ip), vehicle: saline sonified 93 % of control | dose: 6.25 mg/kg/injection, schedule: Q04DX003 (ip), vehicle: saline 103 % of control | dose: 12.5 mg/kg/injection, schedule: Q01DX009 (ip), vehicle: saline sonified 90 % of control | dose: 12.5 mg/kg/injection, schedule: Q04DX003 (ip), vehicle: saline 95 % of control | dose: 25.0 mg/kg/injection, schedule: Q01DX009 (ip), vehicle: saline sonified 93 % of control | dose: 25.0 mg/kg/injection, schedule: Q01DX009 (ip), vehicle: saline with Tween-80 100 % of control | dose: 25.0 mg/kg/injection, schedule: Q04DX003 (ip), vehicle: saline 101 % of control | [13] 108 % of control | [16] 103 % of control | [8] 86 % of control

O=C(COc1cccc(Cl)c1)NCc1ccccc1NC(=O)c1ccc(S(=O)(=O)F)cc1
inactive: [17] 91 % of control | [18] 95 % of control | [19] 91 % of control

NC(N)=N/N=C\c1ccc(/C=N/N=C(N)N)cc1
inactive: dose: 3.0 mg/kg/injection, schedule: Q01DX010 (ip), vehicle: saline 102 % of control | dose: 5.0 mg/kg/injection, schedule: Q01DX010 (ip), vehicle: saline 106 % of control | dose: 8.0 mg/kg/injection, schedule: Q01DX010 (ip), vehicle: saline 110 % of control | dose: 12.0 mg/kg/injection, schedule: Q01DX010 (ip), vehicle: saline 112 % of control

Cc1cc(C)c(CN)cc1CN
inactive: dose: 25.0 mg/kg/injection, schedule: Q04DX003 (ip), vehicle: saline with Tween-80 91 % of control | dose: 50.0 mg/kg/injection, schedule: Q04DX003 (ip), vehicle: saline with Tween-80 88 % of control | [8] 96 % of control

CCCCCCCCCCCC1=C(O)C(=O)C=C(O)C1=O
inactive: [14] 102 % of control | [15] 123 % of control | dose: 50.0 mg/kg/injection, schedule: Q01DX001 (ip), vehicle: saline 101 % of control

NNC(=O)c1cc(NN)ccn1
inactive: [13] 102 % of control | [16] 100 % of control | [8] 100 % of control | [9] 98 % of control

CCCn1c(O)c(C=N)c(=O)n(CCC)c1=O
inactive: [16] 98 % of control | [8] 96 % of control | [4] 101 % of control | [9] 97 % of control | [5] 101 % of control | [10] 100 % of control

COc1ncn(C2CC(OC(=O)c3ccc(C)cc3)C(COC(=O)c3ccc(C)cc3)O2)c(=O)n1 (stereo not given)
inactive: [9] 86 % of control
